Results: PubChem BioAssay AID1963834 (Molecular Pharmacology Branch, DTP, NCI, 2024)

Test system: 873145-292-R-J1-PDC complex spheroid viability
Assay: Anticancer human tumor 873145-292-R-J1-PDC patient-derived renal clear cell carcinoma cell line growth inhibition [POLQ]
Details: for IC50: curve of first compound; for viability, T/C: stronger effect = lower value
Method: Multicellular complex tumor spheroid response to Polymerase (POL) inhibitors (novobiocin, ART-558, RP6685) in combination with a variety of drugs and investigational agents in selected tumor cell lines
The POL inhibitors (novobiocin, ART-558, and RP6685) were evaluated both individually and in combination with standard of care and investigational anticancer small molecules within a complex spheroid model of solid tumors. . Complex spheroids include a stromal component modeled by human endothelial cells (HUVEC) and fibroblasts modeled by human mesenchymal stem cells (MSCs). The concentration ranges selected for each drug and investigational agent were based upon clinically achievable concentrations if the clinical Cmax of the agent was known.
Compounds. The drugs and investigational agents: novobiocin (NSC847541), ART-558 (NSC835418), RP-6685 (NSC848927), peposertib (NSC802822), ceralasertib (NSC780249), elimusertib (NSC800525), camonsertib (NSC841442), AZD-1390 (NSC803789), olaparib (NSC753686), talazoparib (NSC767125), rucaparib (NSC756644), sotorasib (NSC818433), MRTX-1133 (NSC836407), SN-38 (NSC673596), topotecan (NSC609699), epotoside (NSC141540), doxorubicin (NSC123127), gemcitabine (NSC613327), 5-fluorouracil (NSC19893), paclitaxel (NSC125973), vemurafenib (NSC761431), MSA-2 (NSC828583), SN-011 (NSC837082), adavosertib (NSC754352), prexasertib (NSC758257), carboplatin (NSC241240) and oxaliplatin (NSC266046), were obtained from the National Cancer Institute (NCI) Developmental Therapeutics Program Chemical Repository (21). The FDA-approved anticancer drug set is available from the Developmental Therapeutics Program at https://dtp.cancer.gov/organization/dscb/obtaining/. […] The stock solutions were prepared in dimethyl sulfoxide (DMSO, Sigma-Aldrich, St. Louis, MO, cat. D2650), except for the platinum compounds which were prepared in saline (Quality Biological, Gaithersburg, MD, cat. 114-055-101), at 800-fold the tested concentration and stored at -70 degrees C prior to their use. All drugs and investigational agents were tested over a range starting from a high concentration at or near the clinical Cmax and decreasing in half-log increments. If the clinical Cmax for an agent had not been determined, the highest concentration tested was 10 microM, except for SN-38, which was tested at a high concentration of 1 microM.
Cell Culture. All cells were maintained in an incubator at 37 degrees C and 5% CO2 with 95% humidity. The PDC lines were cultured according to standard operating procedures established by the NCI PDMR (https://pdmr.cancer.gov). Table 3 of the manuscript, lists the cell lines along with the number of the three cell types plated to form the mct-spheroids and media for tumor cell growth. After thawing, all PDC lines, except 997537-175-T-J1-PDC and 415267-285-R-J2-PDC, were cultured in Matrigel-coated flasks prepared with a working solution of 1X Ham's F-12 nutrient mix, without supplementation (Thermo Fisher Scientific, cat. 11765054), 100 U/mL penicillin-streptomycin (Thermo Fisher Scientific, cat. 15140122), and 2.5% Matrigel (Corning Inc., Corning, NY, cat. 354248) for the first three passages. The two PDC lines 997537-175-T-J1-PDC and 415267-285-R-J2-PDC were cultured on uncoated flasks. The 857933-349-R-J2-PDC line was cultured in 6C/Colon 1B media containing advanced DMEM/F-12 (Thermo Fisher Scientific, cat. 12634028), 10 mM HEPES (Thermo Fisher Scientific, cat. 15630080), 1X GlutaMAX supplement (Thermo Fisher Scientific, cat. 35050061), 0.1 mg/mL primocin (InvivoGen, San Diego, CA, cat. ant-pm-2), 10% defined fetal bovine serum, heat inactivated (HyClone Laboratories Inc., Logan, UT, cat. SH30070.03HI), 50% L-WRN conditioned media (ATCC, cat. CRL-3276), 1.25 mM N-Acetyl-L-cysteine (Sigma-Aldrich, cat. A9165), 10 mM nicotinamide (Sigma-Aldrich, cat. N0636), 1X B-27 supplement (Thermo Fisher Scientific, cat. 17504044), 1X N-2 supplement (Thermo Fisher Scientific, cat. […]

[1] = second compound 0.0316 µM, first compound 0.0316 µM
[2] = second compound 0.0316 µM, first compound 0.1 µM
[3] = second compound 0.0316 µM, first compound 0.316 µM
[4] = second compound 0.0316 µM, first compound 1 µM
[5] = second compound 0.0316 µM, first compound 3.16 µM
[6] = second compound 0.0316 µM, first compound 10 µM
[7] = second compound 0.1 µM, first compound 0.0316 µM
[8] = second compound 0.1 µM, first compound 0.1 µM
[9] = second compound 0.1 µM, first compound 0.316 µM
[10] = second compound 0.1 µM, first compound 1 µM
[11] = second compound 0.1 µM, first compound 3.16 µM
[12] = second compound 0.1 µM, first compound 10 µM
[13] = second compound 0.316 µM, first compound 0.0316 µM
[14] = second compound 0.316 µM, first compound 0.1 µM
[15] = second compound 0.316 µM, first compound 0.316 µM
[16] = second compound 0.316 µM, first compound 1 µM
[17] = second compound 0.316 µM, first compound 3.16 µM
[18] = second compound 0.316 µM, first compound 10 µM
[19] = second compound 1 µM, first compound 0.0316 µM
[20] = second compound 1 µM, first compound 0.1 µM
[21] = second compound 1 µM, first compound 0.316 µM
[22] = second compound 1 µM, first compound 1 µM
[23] = second compound 1 µM, first compound 3.16 µM
[24] = second compound 1 µM, first compound 10 µM
[25] = second compound 3.16 µM, first compound 0.0316 µM
[26] = second compound 3.16 µM, first compound 0.1 µM
[27] = second compound 3.16 µM, first compound 0.316 µM
[28] = second compound 3.16 µM, first compound 1 µM
[29] = second compound 3.16 µM, first compound 3.16 µM
[30] = second compound 3.16 µM, first compound 10 µM
[31] = second compound 10 µM, first compound 0.0316 µM
[32] = second compound 10 µM, first compound 0.1 µM
[33] = second compound 10 µM, first compound 0.316 µM
[34] = second compound 10 µM, first compound 1 µM
[35] = second compound 10 µM, first compound 3.16 µM
[36] = second compound 10 µM, first compound 10 µM
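Note: spheroids exposed to compounds for 7 days before viability readout.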
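Throughout, for viability, T/C: luminescence signal used as surrogate for viable cell content; 100% = DMSO vehicle control viability.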

Q: For `COc1ccc([C@@H](O)c2cc(-c3ncnc4cc(N5CCOCC5)ccc34)c(F)cc2Cl)nn1` + COC1C(OC(N)=O)C(O)C(Oc2ccc3c(O)c(NC(=O)c4ccc(O)c(CC=C(C)C)c4)c(=O)oc3c2C)OC1(C)C, which IC50 (second compound 0.0316 µM) is on record?
A: 4.41 µM

Q: And the IC50 (second compound 0.1 µM)?
A: 4.1 µM

Q: And the IC50 (second compound 0.316 µM)?
A: 3.22 µM

Q: And the IC50 (second compound 1 µM)?
A: 3.96 µM

Q: And the IC50 (second compound 3.16 µM)?
A: 6.14 µM

Q: What about the IC50 (second compound 10 µM) of the same compound?
A: 5.25 µM

Q: What about the viability, T/C [1] of the same compound?
A: 92%

Q: What about the viability, T/C [2] of the same compound?
A: 97.4%

Q: And the viability, T/C [3]?
A: 81.2%

Q: What about the viability, T/C [4] of the same compound?
A: 69.8%

Q: What about the viability, T/C [5] of the same compound?
A: 50.3%

Q: What about the viability, T/C [6] of the same compound?
A: 46.1%

Q: What about the viability, T/C [7] of the same compound?
A: 94.3%

Q: And the viability, T/C [8]?
A: 87.9%

Q: And the viability, T/C [9]?
A: 83.1%

Q: What about the viability, T/C [10] of the same compound?
A: 71.3%

Q: And the viability, T/C [11]?
A: 51.7%

Q: What about the viability, T/C [12] of the same compound?
A: 40.3%

Q: And the viability, T/C [13]?
A: 108%

Q: What about the viability, T/C [14] of the same compound?
A: 93%

Q: And the viability, T/C [15]?
A: 76.1%

Q: What about the viability, T/C [16] of the same compound?
A: 64.9%

Q: And the viability, T/C [17]?
A: 51.3%

Q: And the viability, T/C [18]?
A: 36.6%

Q: And the viability, T/C [19]?
A: 92.4%

Q: And the viability, T/C [20]?
A: 85.5%

Q: And the viability, T/C [21]?
A: 83.5%

Q: What about the viability, T/C [22] of the same compound?
A: 68.1%

Q: And the viability, T/C [23]?
A: 52.5%

Q: What about the viability, T/C [24] of the same compound?
A: 40.1%

Q: What about the viability, T/C [25] of the same compound?
A: 89.1%

Q: And the viability, T/C [26]?
A: 92.4%

Q: What about the viability, T/C [27] of the same compound?
A: 85.7%

Q: What about the viability, T/C [28] of the same compound?
A: 65.1%

Q: And the viability, T/C [29]?
A: 62.9%

Q: And the viability, T/C [30]?
A: 42.7%

Q: What about the viability, T/C [31] of the same compound?
A: 99.1%

Q: What about the viability, T/C [32] of the same compound?
A: 90%

Q: What about the viability, T/C [33] of the same compound?
A: 88.7%

Q: And the viability, T/C [34]?
A: 70.4%

Q: What about the viability, T/C [35] of the same compound?
A: 58.9%

Q: And the viability, T/C [36]?
A: 39.9%

Q: Which IC50 (second compound 0.0316 µM) does the source give for `CCCS(=O)(=O)Nc1ccc(F)c(C(=O)c2c[nH]c3ncc(-c4ccc(Cl)cc4)cc23)c1F` + Cc1cccc(N(C)C(=O)C2C(O)CCN2c2nc(C)cc(C(F)(F)F)c2C#N)c1 here?
A: > 10 µM

Q: What about the IC50 (second compound 0.1 µM) of the same compound?
A: > 10 µM

Q: What about the IC50 (second compound 0.316 µM) of the same compound?
A: > 10 µM

Q: And the IC50 (second compound 1 µM)?
A: > 10 µM

Q: What about the IC50 (second compound 3.16 µM) of the same compound?
A: > 10 µM

Q: And the IC50 (second compound 10 µM)?
A: > 10 µM

Q: And the viability, T/C [1]?
A: 115%

Q: What about the viability, T/C [2] of the same compound?
A: 110%

Q: What about the viability, T/C [3] of the same compound?
A: 113%

Q: And the viability, T/C [4]?
A: 118%

Q: What about the viability, T/C [5] of the same compound?
A: 89.9%

Q: What about the viability, T/C [6] of the same compound?
A: 79.3%

Q: What about the viability, T/C [7] of the same compound?
A: 105%

Q: What about the viability, T/C [8] of the same compound?
A: 106%

Q: And the viability, T/C [9]?
A: 90.8%

Q: And the viability, T/C [10]?
A: 121%

Q: And the viability, T/C [11]?
A: 105%

Q: What about the viability, T/C [12] of the same compound?
A: 67.6%

Q: And the viability, T/C [13]?
A: 117%

Q: And the viability, T/C [14]?
A: 125%

Q: And the viability, T/C [15]?
A: 94.4%

Q: What about the viability, T/C [16] of the same compound?
A: 112%

Q: And the viability, T/C [17]?
A: 97.4%

Q: What about the viability, T/C [18] of the same compound?
A: 80.6%

Q: What about the viability, T/C [19] of the same compound?
A: 98.6%

Q: What about the viability, T/C [20] of the same compound?
A: 102%

Q: And the viability, T/C [21]?
A: 103%

Q: What about the viability, T/C [22] of the same compound?
A: 106%

Q: What about the viability, T/C [23] of the same compound?
A: 105%

Q: And the viability, T/C [24]?
A: 68.6%

Q: And the viability, T/C [25]?
A: 101%

Q: And the viability, T/C [26]?
A: 111%

Q: And the viability, T/C [27]?
A: 109%

Q: What about the viability, T/C [28] of the same compound?
A: 107%

Q: And the viability, T/C [29]?
A: 105%

Q: And the viability, T/C [30]?
A: 83.8%

Q: What about the viability, T/C [31] of the same compound?
A: 103%

Q: What about the viability, T/C [32] of the same compound?
A: 101%

Q: And the viability, T/C [33]?
A: 96.1%

Q: What about the viability, T/C [34] of the same compound?
A: 109%

Q: And the viability, T/C [35]?
A: 96.8%

Q: And the viability, T/C [36]?
A: 81.1%
